Assay results from publication PMC7822874, “Chemoprotective antimalarials identified through quantitative high-throughput screening of Plasmodium blood and liver stage parasites” (Scientific Reports, 2021).
Read-outs that look alike come from different tables or passages of the source.

Experiments:
[1] = test system: HepG2; conditions: human, hepg2 cells, 48 h
[2] = test system: luciferase-expressing P. berghei liver stage parasites in HepG2 cells; assay: Inhibition of liver-stage development assay (ILSDA), Method 2 (WRAIR, 96-well); type: cell-based, Plasmodium berghei; conditions: for AC50: Plasmodium berghei, HepG2, Method 2
[3] = test system: P. berghei-ANKA-GFP-LucCON liver stage parasites in HepG2-A16-CD81EGFP cells; assay: P. berghei liver stage Pb-Luc assay, Method 1 (UCSD, 1536-well); type: cell-based, Plasmodium berghei; conditions: Plasmodium berghei, Method 1; log10 of molar AC50 from Hill fit; read-out: Log AC50 (converted)
[4] = target: T1, Firefly luciferase (Fluc, EC 1.13.12.7) (Photinus pyralis, UniProt P08659); assay: biochemical; parameters: Firefly luciferase enzyme inhibition counterscreen, luminescence with ATP and D-luciferin; conditions: read-out: Log AC50 (the source's name) (converted)
Protocol: (§1) Compound activity against the Photinus pyralis luciferase (Firefly luciferase, Fluc) reporter utilized for the liver stage assay was determined as previously described using 10 nM Fluc (EC 1.13.12.7) and 10 μM of each substrate (ATP and D-luciferin)[68]. […] Luminescence was detected using ViewLux µHTS Microplate Imager. A counter screen of these 4253 compounds was also performed against the Fluc enzyme, as both liver stage methods utilized a transgenic P. berghei Fluc parasite.

[5] = in vitro; conditions: human, hepg2 cells
[6] = target: T1, Firefly luciferase (Fluc, EC 1.13.12.7); assay: biochemical; parameters: Firefly luciferase enzyme inhibition counter-screen, luminescence read-out
Protocol: as §1

T1 sequence (P08659 whole entry): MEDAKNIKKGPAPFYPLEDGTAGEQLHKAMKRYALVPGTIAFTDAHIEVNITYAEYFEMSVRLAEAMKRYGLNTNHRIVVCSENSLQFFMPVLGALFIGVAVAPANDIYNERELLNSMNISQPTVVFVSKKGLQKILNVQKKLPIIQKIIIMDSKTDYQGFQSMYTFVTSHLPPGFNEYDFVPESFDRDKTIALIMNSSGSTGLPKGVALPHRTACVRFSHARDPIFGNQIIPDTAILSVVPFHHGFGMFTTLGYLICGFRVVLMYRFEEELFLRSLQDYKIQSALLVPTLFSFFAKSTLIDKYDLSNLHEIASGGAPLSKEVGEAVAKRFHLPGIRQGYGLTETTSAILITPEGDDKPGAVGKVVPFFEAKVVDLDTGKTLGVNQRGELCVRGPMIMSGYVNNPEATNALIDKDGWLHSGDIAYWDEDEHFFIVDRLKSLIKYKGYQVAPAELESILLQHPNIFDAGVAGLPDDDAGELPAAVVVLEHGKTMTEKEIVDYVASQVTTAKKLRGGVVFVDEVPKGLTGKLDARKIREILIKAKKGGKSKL

SMILES: CCN(CC)CCCN(c1ccccc1)C1Cc2ccccc2C1.Cl [NCGC00167576-01]
- Log AC50 (M) [1]: -4.5643 M
- Max Resp (signal direction of the dose response) ([2]; Method 2, Decrease = decreasing P. berghei viability with dose, Increase = increasing signal, Inactive = no dose response): Decrease
- AC50 ([2]; Hill fit, 50% of maximum activity response, read-out: AC50): 7.94 µM
- AC50 ([2]; log10 of molar AC50 from Hill fit, read-out: Log AC50 (converted)): 7.94 µM
- AC50 [3]: 1.58 µM
- IC50 [4]: > 57 µM
- CC50 at 48 h [5]: 27.3 µM
- AC50 [6]: > 57 µM
